Measured values reported in patent US6218393A, “Anthranilic acid derivatives as multi drug resistance modulators” (priority 1997, dated 2001).

Key:
AR 1.0 cells [1] = assay: Drug accumulation assay: daunorubicin accumulation in AR 1.0 cells; format: cell-based; settings: Mus musculus, 100% = accumulation with verapamil 100 μM, 1 hr, 37° C.
Experimental: (§1) The EMT6 mouse mammary carcinoma cell line and the MDR resistant subline AR 1.0 were cultured in RPMI 1640 medium containing 10% foetal calf serum and 2 mM glutamine at 37° C. in 5% CO2. Cells were passaged between 1 in 200 and 1 in 2000 in the case of the parental cell line and between 1 in 20 and 1 in 200 in the case of the MDR resistant subline, after trypsinisation (0.25% trypsin, 0.2 gl^-1, EDTA).
AR 1.0 cells were seeded 48 hours prior to assay into 96 well opaque culture plates (Canberra Packard).

AR 1.0 cells [2] = assay: Potentiation index with doxorubicin titration; format: cell-based, mouse; settings: for Potentiation Index at RMA concentration 30 nM: Table C1, RMA 30 nM; for Potentiation Index at RMA concentration 50 nM: Table C1, RMA 50 nM; for Potentiation Index at RMA concentration 100 nM: Table C1, RMA 100 nM; for Potentiation Index at RMA concentration 10 nM: Table C1, RMA 10 nM
Experimental: as §1, with “EDTA). […]” for “EDTA).”
(b) Cells were cultured for four days with a titration of doxorubicin (0.263 nM-17.24 μM) in the presence of a fixed concentration of each compound. Proliferation was quantified as described by Skehen et al, loc cit. The IC50 (concentration required to reduce proliferation to 50% of the untreated controls) for doxorubicin alone and with each compound were derived and used to calculate the potentiation index (PI): [formula]

SMILES | IC50 (AR 1.0 cells [1]) | Potentiation Index at RMA concentration 30 nM (AR 1.0 cells [2]) | Potentiation Index at RMA concentration 50 nM (AR 1.0 cells [2]) | Potentiation Index at RMA concentration 100 nM (AR 1.0 cells [2]) | Potentiation Index at RMA concentration 10 nM (AR 1.0 cells [2]) | Potentiation Index at RMA concentration 20 nM (AR 1.0 cells [2]; Table C1, RMA 20 nM) | Potentiation Index at RMA concentration 300 nM (AR 1.0 cells [2]; Table C2, RMA 300 nM) | Potentiation Index at RMA concentration 500 nM (AR 1.0 cells [2]; Table C2, RMA 500 nM)
COc1cc2c(cc1OC)CN(CCc1ccc(NC(=O)c3ccccc3NC(=O)c3csc(C)n3)cc1)CC2 [compound 9635, 2-Methyl-thiazole-4-carboxylic acid (2-{4-[2-(6,7-dimethoxy-3,4-dihydro-1H-isoquinolin-2-yl)-ethyl]-phenylcarbamoyl}-phenyl)-amide] | 669 nM | 1.3 | 2 | 7 | – | – | – | –
COc1cc2c(cc1OC)C(C)N(CCc1ccc(NC(=O)c3ccccc3NC(=O)c3cnc4ccccc4c3)cc1)CC2 (stereo not drawn) [compound 9625, Quinoline-3-carboxylic acid (2-{4-[2-(6,7-dimethoxy-1-methyl-3,4-dihydro-1H-isoquinolin 2-yl)-ethyl]-phenylcarbamoyl}-phenyl)-amide] | 347 nM | 4 | 7 | 60 | 1 | – | – | –
COc1cc2c(cc1OC)CN(CCCc1cccc(NC(=O)c3ccccc3NC(=O)c3cnc4ccccc4c3)c1)CC2 [compound 9660, Quinoline-3-carboxylic acid (2-{3-[3-(6,7-dimethoxy-31 4-dihydro-1H-isoquinolin-2-yi)-propyl]-phenyicarbamoyi}-phenyi)-atnide] | 6420 nM | 1.1 | 1.2 | 1.4 | – | – | – | –
COc1cc2c(cc1OC)CN(CC(O)COc1ccc(NC(=O)c3ccccc3NC(=O)c3cnc4ccccc4c3)cc1)CC2 (stereo not drawn) [compound 9648, Quinoline-3-carboxylic acid (2-{4-[3-(6,7-dimethoxy-3,4-dihydro-1H-isoquinolin-2-yl)-2-hydroxy-propoxy]-phenylcarbamoyl}-phenyl)-amide] | 38 nM | 34 | – | – | 16 | – | – | –
CN(CCc1ccc(NC(=O)c2ccccc2NC(=O)c2cnc3ccccc3c2)cc1)Cc1ccc2c(c1)OCCO2 [compound 9645, Quinoline-3-carboxylic acid [2-(4-{2-[(2,3-dihydro-benzo [1,4]dioxin-6-ylmethyl)-methyl-amino]-ethyl}-phenylcarbamoyl)-phenyl]-amide] | 179 nM | 1.3 | 2.1 | 7.2 | 1.0 | – | – | –
CN(CCc1ccc(NC(=O)c2ccccc2NC(=O)c2cnc3ccccc3c2)cc1)Cc1ccc(F)c(F)c1 [compound 9643, Quinoline-3-carboxylic acid [2-(4-{2-[(3,4-difluoro-benzyl)-methyl-amino]-ethyl}-phenylcarbamoyl)-phenyl]-amide] | 425 nM | 1.5 | 2.4 | 6.7 | 1.0 | – | – | –
COc1cc2c(cc1OC)CN(CCc1ccc(NC(=O)c3ccccc3NC(=O)c3cnc4ccccc4c3)c(C)c1)CC2 [compound 9650, Quinoline-3-carboxylic acid (2-{4-[2-(6,7-dimethoxy-3,4-dihydro-1H-isoquinolin-2-yl)-ethyl]-2-methyl-phenylcarbamoyl}-phenyl)-amide] | 61 nM | 3 | 14 | 33 | 3 | – | – | –
CCOc1cc2c(cc1OCC)CN(CCc1ccc(NC(=O)c3ccccc3NC(=O)c3cnc4ccccc4c3)cc1)CC2 [compound 9665, Quinoline-3-carboxylic acid (2-{4-[2-(6,7-diethoxy-3,4-dihydro-1H-isoquinolin-2-yl)-ethyl]-phenylcarbamoyl}-phenyl)-amide] | 389 nM | 7 | 28 | 50 | 1.4 | – | – | –
COc1cc2c(cc1OC)CN(CCc1ccc(NC(=O)c3cc(N(C)C)ccc3NC(=O)c3cnc4ccccc4c3)cc1)CC2 [compound 9595, Quinoline-3-carboxylic acid (2-{4-[2-(6,7-dimethoxy-3,4-dihydro-1H-isoquinolin-2-yl)-ethyl]-phenylcarbamoyl}-4-dimethylamino-phenyl)-amide] | 370 nM | 1.93 | 2.99 | 45 | 1.45 | – | – | –
CN(CCc1ccc(NC(=O)c2ccccc2NC(=O)c2cnc3ccccc3c2)cc1)Cc1ccc(N(C)C)cc1 [compound 9655, Quinoline-3-carboxylic acid [2-(4-{2-[(4-dimethylamino-benzyl)-methyl-amino]-ethyl}-phenylcarbamoyl)-phenyl]-amide] | 557 nM | 13 | 37 | 65 | 1.8 | – | – | –
COc1cc2c(cc1OC)CN(CCc1ccc(NC(=O)c3nccnc3NC(=O)c3cnc4ccccc4c3)cc1)CC2 [compound 9622, Quinoline-3-carboxylic acid (3-{4-[2-(6,7-dimethoxy-3,4-dihydro-1H-isoquinolin-2-yl)-ethyl]-phenylcarbamoyl}-pyrazin-2-yl)-amide] | 207 nM | 15 | 46 | 79 | 1.8 | 8 | – | –
COc1cc(CN(C)CCc2ccc(NC(=O)c3ccccc3NC(=O)c3cnc4ccccc4c3)cc2)ccc1OC(C)C [compound 9646, Quinoline-3-carboxylic acid [2-(4-{2-[(4-isopropoxy-3-methoxy-benzyl)-methyl-amino]-ethyl}-phenylcarbamoyl)-phenyl]-amide] | 295 nM | 1.1 | 1.3 | 4.8 | 1.0 | – | – | –
O=C(Nc1ccccc1C(=O)Nc1ccc(CCN2Cc3ccccc3C2)cc1)c1cnc2ccccc2c1 [compound 9626, Quinoline-3-carboxylic acid (2-{4-[2-(1,3-dihydro-isoindol-2-yl)-ethyl]-phenylcarbamoyl}-phenyl)-amide] | 278 nM | 4 | 8 | 27 | 1.2 | – | – | –
COc1ccc(CN(C)Cc2ccc(NC(=O)c3ccccc3NC(=O)c3cccnc3)cc2)cc1OC(C)C [compound 9661, N-[2-(4-{[(3-Isopropoxy-4-methoxy-benzyl)-methyl-amino]-methyl}-phenylcarbamoyl)-phenyl]-nicotinamide] | 362 nM | 38 | 71 | 195 | 1.2 | – | – | –
Cc1ccc(CN(C)CCc2ccc(NC(=O)c3ccccc3NC(=O)c3cnc4ccccc4c3)cc2)cc1C [compound 9631, Quinoline-3-carboxylic acid [2-(4-{2-[(3,4-dimethyl-benzyl)-methyl-amino]-ethyl}-phenylcarbatnoyl)-phenyl]-amide] | 669 nM | 9 | 20 | 67 | 1 | – | – | –
COc1cc2c(cc1OC)CN(CCc1ccc(NC(=O)c3ccccc3NC(=O)c3coc(C)n3)cc1)CC2 [compound 9638, 2-Methyl-oxazole-4-carboxylic acid (2-{4-[2-(6,7-dimethoxy-3,4-dihydro-1H-isoquinolin-2-yl)-ethyl]-phenylcarbamoyl}-phenyl)-amide] | 552 nM | 1.1 | 1.5 | 2.6 | – | – | – | –
COc1cc2c(cc1OC)CN(CCNC(=O)c1ccccc1NC(=O)c1ccc(-c3ccccc3)cc1)CC2 [compound 9294, Biphenyl-4-carboxylic acid {2-[2-(6,7-dimethoxy-3,4-dihydro-1H-isoquinolin-2-yl)-ethylcarbamoyl]-phenyl}-amide] | 400 nM | – | – | – | – | – | 18 | 71
COc1cc(CN(C)CCc2ccc(NC(=O)c3ccccc3NC(=O)c3cnc4ccccc4c3)cc2)ccc1O [compound 9649, Quinoline-3-carboxylic acid [2-(4-{2-[(4-hydroxy-3-methoxy-benzyl)-methyl-amino]-ethyl}phenylcarbamoyl)-phenyl]-amide] | 188 nM | 46 | 60 | 66 | 53 | – | – | –
